Measured values from patent publication US4835252A, “Vasoactive intestinal peptide analogs” (The Salk Institute Biotechnology/Industrial Associates, Inc., priority 1987, dated 1989).
No end group written: not given here.

Legend:
[1] = test system: dispersed guinea pig pancreatic acinar cells; test: Amylase-release assay with dispersed pancreatic acinar cells; type: cell-based; settings: ED50 for the human VIP standard divided by ED50 for the analog; 30 minutes at 37° C.
Procedure: The bioactivity of analogs of Example I, chicken VIP, guinea pig VIP, and human VIP without amidation at the carboxy-terminus was determined, relative to that of naturally occurring human VIP, by an amylase-release assay employing dispersed guinea pig pancreatic acinar cells. The assay was essentially that described by Peikin et al., Am. J. Physiol. 235, E743-E749 (1978).
For the assays conducted each day, dispersed acinar cells, free of debris, were freshly prepared from a pancreas of a male or female guinea pig (120-150 gm), following generally the method described by Peikin et al., supra.
The procedure employed a "standard incubation medium," which consisted of 95 mM NaCl; 6 mM KCl; 2.5 mM NaH2 PO4; 5 mM each of sodium pyruvate, sodium fumarate and sodium glutamate; 0.5 mM CaCl2, 1.0 mM MgCl2, 11.5 mM glucose, 0.05 mg/ml glutamine; amino acids and vitamius from Eagle's Minimum Essential Medium at their concentration in such Eagle's Medium; 25 mM HEPES; 0.08 mg/ml soybean trypsin inhibitor (Calbiochem); pH 7.4.
The animal was sacrificed, its pancreas removed and the pancreas trimmed of fat, blood vessels, duodenum and the like. With a syringe with a 25 gauge needle, 10.0 ml of collagenase solution (standard incubation medium with 0.2 mg/ml C. histolyticum collagenase and 2 mg/ml BSA (Fraction V) (both from Calbiochem, San Diego, California, U.S.A.)) was injected into the pancreas, which was then transferred to a 25 ml flask, gassed with 100% O2, and shaken on a shaker as rapidly as possible for 10 minutes at 37° C. Then the liquid was poured off and replaced with another 5.0 ml of collagenase solution, and the gassing with 100% O2 and shaking for 10 minutes at 37° C. were repeated. The replacement of liquid, gassing with 100% O2 and shaking at 37° C. were again repeated. If, by visual inspection, digestion appeared to be incomplete, vigorous shaking by hand with 1 minute incubation at 37° C. were repeated until digestion was complete. The mass was then broken up further by passing chunks through a large bore serological pipette, and then a small bore pipette. Very large chunks, fur and debris were removed with a long Pasteur pipette. Then half of the resulting acinar cell suspension was placed into each of two 15 ml clear, polystyrene tubes, each containing 4.0 ml of 4.0% BSA solution (standard incubation medium with 40 mg/ml BSA (Fraction V) and 2 mM, rather than 0.5 mM, CaCl2). Both combinations were mixed thoroughly and debris was again removed. The resulting suspensions were spun at medium speed in a tabletop centrifuge for 30 seconds, the supernatants were discarded, and the pellets were resuspended in 4.0 ml of 4.0% BSA and 4.0 ml of 0.2% BSA solution (standard suspension medium with 2 mg/ml BSA (Fraction V) and 2 mM, rather than 0.5 mM, CaCl2), the suspension was again cleaned of debris, and then spun as above with the tabletop centrifuge. The supernatants were discarded and the pellets again washed with 4.0 ml of 4% BSA solution and repelleted as above with the tabletop centrifuge. Again, the supernatants were discarded and the pellets were carried into one 250 ml Erlenmeyer flask, to which 50.0 ml of 1% BSA solution (standard incubation medium with 10 mg/ml BSA (Fraction V) and 5 mM theophylline) had been added. When the cells were not used immediately, the suspension was gassed with 100% O2. The preparation was acceptable for use in an assay only if the cells were fine and well dispersed and there was nothing visible in the preparation other than cells. […]

[2] = target: VIP receptors in rat lung membrane
Procedure: Radioreceptor assays were carried out to determine the affinities of analogs of Example I for VIP receptors in rat lung membrane, following Leroux et al., Endocrinology 114, 1506-1512 (1984).
The following buffers were prepared:
Buffer A: 250 mM sucrose, 5 mM MgCl2, 25 mM Tris, pH 7.4
Buffer B: 5 mM MgCl2, 25 mM Tris, pH 7.4
Buffer C: 25 mM Tris, 5 mM MgCl2, 1 mg/ml bacitracin, 2 mg/ml bovine serum albumin ("BSA"), pH 7.4
Phenylmethylsulfonyl fluoride ("PMSF") was added, to a final concentration of 1 mM, to the buffers immediately prior to their use.
^125 I-labeled, human VIP (^125 I-VIP) was purchased from New England Nuclear (Boston, Mass., U.S.A.). The peptide as purchased was diluted to 10^-5 Ci/ml with Buffer C and stored in 25 ul or 50 ul aliquots at -20° C., which were subsequently diluted with Buffer C, as described below, for the assays.
Rat lung membrane was prepared for the assay as follows, following Leroux et al., supra: Five female Sprague-Dawley rats (200-250 g) were sacrificed and their hearts perfused with iced, phosphate-buffered saline (PBS) through the right atrium (approximately 30 ml PBS per rat). The lungs, which were whitened, were then removed and placed directly in iced PBS and any blood was rinsed from the tissue. The lung tissue was then transferred to a weighing device on ice; blood vessels, fat and the like were removed from the tissue; and the tissue was blotted and weighed. The lung tissue was then transferred to a 50 cm^3 Falcon tube with 2 ml of Buffer A per g lung tissue (approximately 25 ml Buffer A) and homogenized at 4° C. 1 minute in a polytron (Brinkmann Instruments Co., Westbury, N.Y., U.S.A.) and then with a glass/teflon homogenizer (approximately 5-6 strokes). The homogenate was filtered through two layers of cheesecloth, and the filtrate was then transferred to tubes for centrifugation at 30,000×g for 10 minutes. The pellets were then resuspended in approximately 70 ml of Buffer B using a glass/teflon homogenizer and the resulting suspensions were again centrifuged at 30,000×g for ten minutes. The resulting pellets were resuspended in 50 ml of Buffer B using a glass/teflon homogenizer. The suspension was divided into 1.0 ml aliquots in microfuge tubes, which were quickly frozen and stored on dry ice until use.
When used, an aliquot of suspension was thawed and microfuged at 4° C. for several minutes to pellet suspended material. The supernatant was carefully removed and the pellet resuspended in 1 ml of Buffer C.
Prior to use of a VIP receptor-containing suspension in an assay, the protein concentration was adjusted to 2 mg/ml by addition of Buffer C. Then 100 ul of this suspension (2 mg/ml) was combined with 100 ul of solution of ^125 I-VIP, 100 ul of solution of the VIP or analog thereof being assayed and 200 ul of Buffer C; consequently, the concentration of protein from the rat lung VIP receptor preparations used in the assays was 0.4 mg/ml.
In the radioreceptor assays, the ability of analog to displace ^125 I-VIP from binding in the receptor preparation was measured by a standard procedure. For each analog, and naturally occurring human VIP as standard, a series of solutions, of 500 ul total volume in Buffer C, containing various concentrations of analog or standard (between about 10^-11 M and 10^-6 M), ^125 I-VIP at 100 cpm/ul (about 2×10^-10 M), and receptor preparation (0.4 mg protein/ml) were assayed.

[3] = Stability against proteolytic degradation in crude rat-lung homogenate; settings: 10^-5 M peptide in crude rat lung homogenate, 37° C., intact peptide by HPLC
Procedure: The stability of naturally occurring, human VIP and various analogs described in Example I was assessed by determining their resistance to degradation when incubated with a crude rat-lung homogenate.
For the assay, the lungs were taken from a female Sprague-Dawley rat and were perfused with ice-cold phosphate-buffered saline, as described in Example II. The whitened lungs were polytroned and then homogenized in Degradation Assay Buffer (25 mM Tris, 5 mM MgCl2, pH 7.4), and the homogenate was filtered through cheesecloth. The filtrate was then diluted to a final volume of 500 ml with Degradation Assay Buffer, to yield the crude lung homogenate.
Resistance to degradation was measured by determining the half-life of the human VIP or analog in the crude lung homogenate. To determine these half-lives, the human VIP or analog was added to 1 ml of the crude homogenate to a concentration of 10^-5 M, and the mixture was incubated at 37° C. After incubation for the desired time period, the sample was placed in a 100° C. bath and boiled for 5 minutes, and then acidified with glacial acetic acid (10% final volume) and, finally, cooled rapidly by being placed on dry ice. The sample was then microfuged at 4° C. for 15 minutes, and the supernatant analysized for peptide content by HPLC.

Row | Molecule | HALF-LIFE [3] [min] | RELATIVE IC50 [2] | Potency (Amylase Release Assay) [1] | IC50 ([2]; read-out: concentration required to displace half of the 125I-VIP / occupy half the receptor sites, rat lung membrane receptor preparation at 0.4 mg protein/ml) [nM]
1 | CC[C@H](C)[C@H](NC(=O)[C@H](CO)NC(=O)[C@H](CC(N)=O)NC(=O)[C@H](CC(C)C)NC(=O)[C@H](Cc1ccc(O)cc1)NC(=O)[C@H](CCCCN)NC(=O)[C@H](CCCCN)NC(=O)[C@@H](NC(=O)[C@H](C)NC(=O)[C@H](CCSC)NC(=O)[C@H](CCC(N)=O)NC(=O)[C@H](CCCCN)NC(=O)[C@H](CCCNC(=N)N)NC(=O)[C@H](CC(C)C)NC(=O)[C@H](CCCNC(=N)N)NC(=O)[C@@H](NC(=O)[C@H](Cc1ccc(O)cc1)NC(=O)[C@H](CC(N)=O)NC(=O)[C@H](CC(=O)O)NC(=O)[C@@H](NC(=O)[C@H](Cc1ccccc1)NC(=O)[C@@H](NC(=O)[C@H](C)NC(=O)[C@H](CC(=O)O)NC(=O)[C@H](CO)NC(=O)[C@@H](N)Cc1c[nH]cn1)C(C)C)[C@@H](C)O)[C@@H](C)O)C(C)C)C(=O)N[C@@H](CC(C)C)C(=O)N[C@@H](CC(N)=O)C(N)=O [Human VIP, HSDAVFTDNYTRLRKQMAVKKYLNSILN-NH2, reference compound] | 16 |  | 1.0 | ~0.5
2 | CC[C@H](C)[C@H](NC(=O)[C@H](CO)NC(=O)[C@H](CC(N)=O)NC(=O)[C@H](CC(C)C)NC(=O)[C@H](Cc1ccc(O)cc1)NC(=O)[C@H](CCCCN)NC(=O)[C@H](CCCCN)NC(=O)[C@@H](NC(=O)[C@H](C)NC(=O)[C@H](CCSC)NC(=O)[C@H](CCC(N)=O)NC(=O)[C@H](CCCCN)NC(=O)[C@H](CCCNC(=N)N)NC(=O)[C@H](CC(C)C)NC(=O)[C@H](CCCNC(=N)N)NC(=O)[C@@H](NC(=O)[C@H](Cc1ccc(O)cc1)NC(=O)[C@H](CC(N)=O)NC(=O)[C@H](CC(=O)O)NC(=O)[C@@H](NC(=O)[C@H](Cc1ccccc1)NC(=O)[C@@H](NC(=O)[C@H](C)NC(=O)[C@H](CC(=O)O)NC(=O)[C@H](CO)NC(=O)[C@@H](N)Cc1c[nH]cn1)C(C)C)[C@@H](C)O)[C@@H](C)O)C(C)C)C(=O)N[C@@H](CC(C)C)C(=O)N[C@@H](CC(N)=O)C(=O)O [reference compound] |  |  | 0.4 | 
3 | HSDAVYSDSFSRYRRSVALRRFVSNVVT-NH2 [Analog I, HSDAVYSDSFSRYRRSVALRRFVSNVVT-(NH2)i] | 4 | 140 | 5 × 10^-4 | 
4 | HSDAVYSDSFSRYRSRVALSRFVRNVVT-NH2 [Analog II, HSDAVYSDSFSRYRSRVALSRFVRNVVT-(NH2)i] | 7.5 | 550 | 1 × 10^-4 | 

More lines, main results first:

Row | HALF-LIFE [3] [min] | RELATIVE IC50 [2] | Molecule | Potency (Amylase Release Assay) [1] | IC50 ([2]; read-out: concentration required to displace half of the 125I-VIP / occupy half the receptor sites, rat lung membrane receptor preparation at 0.4 mg protein/ml) [nM]
5 | 2.5 | 4.2 | H-HSDAVFSDSYSRFRRSMAVRRYLSNVLT-NH2 [Analog V, HSDAVFSDSYSRFRRSMAVRRYLSNVLT-(NH2)i] | 0.2 | 
6 |  | 20 | HSDALFTDTYTRLRKQMAMKKYLNSVLN-NH2 [Guinea Pig VIP, reference compound] | 0.05 | 
7 |  | 1.4 | HSDAVFTDNYSRFRKQMAVKKYLNSVLT-NH2 [Chicken VIP, reference compound] | 0.5 | 
8 |  | 175 | HSDAVFTDNYSRFRKQMAVRRFVNSVLT-NH2 [Analog IX, HSDAVFTDNYSRFRKQMAVRRFVNSVLT-(NH2)i] | 7 × 10^-4 | 
9 |  | 86 | HSDAVFTDNYSRYRRQMAVKKYLNSVLT-NH2 [Analog VII, HSDAVFTDNYSRYRRQMAVKKYLNSVLT-(NH2)i] | 1.0 × 10^-3 | 
10 | 4 | 2350 | HSDAVYSDSFRSYRSRVALSRFVRNVVT-NH2 [Analog III, HSDAVYSDSFRSYRSRVALSRFVRNVVT-(NH2)i] | 1.0 × 10^-3 | 
11 | 5 | 1040 | HSDAVYTDNFSRYRKQVALKKFVNSVVT-NH2 [Analog IV, HSDAVYTDNFSRYRKQVALKKFVNSVVT-(NH2)i] | 4.4 × 10^-3 | 
